From patent US20200246317A1, “METHODS OF TREATING DIABETIC NEUROPATHY WITH A THIAZOLINE ANTI-HYPERALGESIC AGENT” (CERSCI THERAPEUTICS, INC., priority 2019, published 2020) come the findings set out here.

For data set [1], the system named is STZ-induced mechanical allodynia. The data set can be described thus: Diabetic neuropathy model of FIG. 10 (STZ, mechanical hypersensitivity). The format is in vivo, mice. The note with it: STZ on day −7. As for the experimental part:
Streptozotocin (STZ) destroys insulin-producing cells and generates a diabetic phenotype in mice. Animals were dosed with STZ on day −7. By day 0, animals are hyperglycemic and hyperalgesic (day 0 BL).

The nature of data set [2]: Chemical-based assays of peroxynitrite (PN) oxidation (luminol). The format is biochemical.
Data set [3] can be described thus: Rat brain distribution and pharmacokinetic study. It is filed as in vivo. The source says: A rat brain distribution study performed in order to determine standard pharmacokinetic parameters and to assess the brain penetration properties of Compound 1 administered orally and intravenously.
A short description of data set [4]: Pharmacokinetics in dog. It is filed as in vivo.
Description: Similar conditions were used to validate a bioanalytical method in dog plasma also using 50 μL of plasma. In both assays, a deuterated (Compound 1-d4) internal standard was used.
A short description of data set [5]: In vivo epimerization by chiral methods.
A short description of data set [6]: Stability in hepatocytes, dog. The format is in vitro ADME.
A short description of data set [7]: Excretion in rats. It is filed as in vivo, rat.
The target of data set [8] is T1, P-gp (MDR1/ABCB1) (Homo sapiens, UniProt P08183).
T1 construct: Caco-2 cells; endogenous in cells; host or cells: Caco-2 cells
The data set can be described thus: Inhibition of transporters, P-gp (Caco-2 cells, digoxin). It is filed as in vitro ADME. For orientation: Caco-2 cells form a polarised layer with tight junctions and transporters.

Data set [9] deals with T2, BCRP (ABCG2) (Homo sapiens, UniProt Q9UNQ0).
T2 construct: expressed in transfected cells; host or cells: MDCKII-BCRP cells (with MDCKII control cells)
T2 sequence (Q9UNQ0 1-655): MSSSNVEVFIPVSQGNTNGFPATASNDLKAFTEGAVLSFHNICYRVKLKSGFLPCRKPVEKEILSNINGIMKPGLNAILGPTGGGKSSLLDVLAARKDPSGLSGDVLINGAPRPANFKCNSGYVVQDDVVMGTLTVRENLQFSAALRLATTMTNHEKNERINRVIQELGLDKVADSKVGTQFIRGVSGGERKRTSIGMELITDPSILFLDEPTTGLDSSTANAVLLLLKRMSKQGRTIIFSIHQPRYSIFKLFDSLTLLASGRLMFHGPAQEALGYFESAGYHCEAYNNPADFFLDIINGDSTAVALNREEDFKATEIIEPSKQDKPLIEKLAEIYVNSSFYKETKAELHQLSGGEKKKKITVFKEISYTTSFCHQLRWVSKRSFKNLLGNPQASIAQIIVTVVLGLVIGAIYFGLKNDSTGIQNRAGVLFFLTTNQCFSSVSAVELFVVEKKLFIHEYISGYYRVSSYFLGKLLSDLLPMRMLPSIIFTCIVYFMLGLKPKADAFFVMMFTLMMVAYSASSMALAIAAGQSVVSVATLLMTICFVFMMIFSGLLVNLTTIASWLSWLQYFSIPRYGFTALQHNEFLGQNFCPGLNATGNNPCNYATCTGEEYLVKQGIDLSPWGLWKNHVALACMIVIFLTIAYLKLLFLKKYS
As to the kind of experiment: Inhibition of transporters, BCRP (MDCKII cells, prazosin). It is filed as in vitro ADME.

Data set [10] concerns the target T3, OATP1B3 (Homo sapiens, UniProt Q9NPD5).
T3 construct: expressed in transfected cells; host or cells: HEK293 cells
T3 sequence (Q9NPD5 1-702): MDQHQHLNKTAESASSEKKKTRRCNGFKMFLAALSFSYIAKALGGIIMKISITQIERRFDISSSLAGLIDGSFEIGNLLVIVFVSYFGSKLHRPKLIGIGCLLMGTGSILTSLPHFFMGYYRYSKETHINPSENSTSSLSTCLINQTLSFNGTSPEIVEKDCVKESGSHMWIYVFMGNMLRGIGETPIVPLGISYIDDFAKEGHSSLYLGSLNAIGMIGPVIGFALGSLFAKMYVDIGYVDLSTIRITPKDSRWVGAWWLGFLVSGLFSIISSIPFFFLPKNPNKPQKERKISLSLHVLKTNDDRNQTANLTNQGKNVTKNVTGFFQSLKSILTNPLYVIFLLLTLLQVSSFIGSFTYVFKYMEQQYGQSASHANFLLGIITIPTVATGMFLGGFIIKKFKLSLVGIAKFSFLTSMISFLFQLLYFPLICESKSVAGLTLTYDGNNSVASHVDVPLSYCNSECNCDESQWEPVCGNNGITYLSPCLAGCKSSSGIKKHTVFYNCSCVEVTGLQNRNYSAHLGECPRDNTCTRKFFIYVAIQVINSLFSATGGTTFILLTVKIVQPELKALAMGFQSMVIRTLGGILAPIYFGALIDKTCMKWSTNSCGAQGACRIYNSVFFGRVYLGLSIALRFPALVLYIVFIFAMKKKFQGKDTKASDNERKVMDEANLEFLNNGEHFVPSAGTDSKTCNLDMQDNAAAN
As to the kind of experiment: Inhibition of transporters, OATP1B3 (HEK293 cells). The format is in vitro ADME.

For data set [11], the target named is T4, OAT3 (Homo sapiens, UniProt Q8TCC7).
T4 construct: expressed in transfected cells; host or cells: HEK293 cells
T4 sequence (Q8TCC7 1-542): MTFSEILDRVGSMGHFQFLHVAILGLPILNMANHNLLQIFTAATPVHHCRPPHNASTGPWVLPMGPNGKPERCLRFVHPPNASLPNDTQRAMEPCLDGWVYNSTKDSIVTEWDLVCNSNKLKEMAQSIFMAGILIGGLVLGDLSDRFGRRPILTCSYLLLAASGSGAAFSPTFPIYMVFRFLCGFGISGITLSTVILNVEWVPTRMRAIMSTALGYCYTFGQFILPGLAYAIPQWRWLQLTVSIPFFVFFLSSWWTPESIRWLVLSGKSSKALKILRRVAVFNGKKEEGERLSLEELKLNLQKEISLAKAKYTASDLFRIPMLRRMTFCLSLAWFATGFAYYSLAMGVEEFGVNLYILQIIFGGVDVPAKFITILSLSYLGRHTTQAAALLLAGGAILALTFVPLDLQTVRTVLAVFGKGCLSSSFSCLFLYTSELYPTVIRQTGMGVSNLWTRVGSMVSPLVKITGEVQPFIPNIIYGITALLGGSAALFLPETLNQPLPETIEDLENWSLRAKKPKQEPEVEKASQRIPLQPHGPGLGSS
As to the kind of experiment: Inhibition of transporters, OAT3 (HEK293 cells). It is filed as in vitro ADME.

Structures are written as SMILES. Counter-ions that a name gives are not always drawn. Where only a bound is given, the exact number is not on record here.

T1 sequence (P08183 whole entry): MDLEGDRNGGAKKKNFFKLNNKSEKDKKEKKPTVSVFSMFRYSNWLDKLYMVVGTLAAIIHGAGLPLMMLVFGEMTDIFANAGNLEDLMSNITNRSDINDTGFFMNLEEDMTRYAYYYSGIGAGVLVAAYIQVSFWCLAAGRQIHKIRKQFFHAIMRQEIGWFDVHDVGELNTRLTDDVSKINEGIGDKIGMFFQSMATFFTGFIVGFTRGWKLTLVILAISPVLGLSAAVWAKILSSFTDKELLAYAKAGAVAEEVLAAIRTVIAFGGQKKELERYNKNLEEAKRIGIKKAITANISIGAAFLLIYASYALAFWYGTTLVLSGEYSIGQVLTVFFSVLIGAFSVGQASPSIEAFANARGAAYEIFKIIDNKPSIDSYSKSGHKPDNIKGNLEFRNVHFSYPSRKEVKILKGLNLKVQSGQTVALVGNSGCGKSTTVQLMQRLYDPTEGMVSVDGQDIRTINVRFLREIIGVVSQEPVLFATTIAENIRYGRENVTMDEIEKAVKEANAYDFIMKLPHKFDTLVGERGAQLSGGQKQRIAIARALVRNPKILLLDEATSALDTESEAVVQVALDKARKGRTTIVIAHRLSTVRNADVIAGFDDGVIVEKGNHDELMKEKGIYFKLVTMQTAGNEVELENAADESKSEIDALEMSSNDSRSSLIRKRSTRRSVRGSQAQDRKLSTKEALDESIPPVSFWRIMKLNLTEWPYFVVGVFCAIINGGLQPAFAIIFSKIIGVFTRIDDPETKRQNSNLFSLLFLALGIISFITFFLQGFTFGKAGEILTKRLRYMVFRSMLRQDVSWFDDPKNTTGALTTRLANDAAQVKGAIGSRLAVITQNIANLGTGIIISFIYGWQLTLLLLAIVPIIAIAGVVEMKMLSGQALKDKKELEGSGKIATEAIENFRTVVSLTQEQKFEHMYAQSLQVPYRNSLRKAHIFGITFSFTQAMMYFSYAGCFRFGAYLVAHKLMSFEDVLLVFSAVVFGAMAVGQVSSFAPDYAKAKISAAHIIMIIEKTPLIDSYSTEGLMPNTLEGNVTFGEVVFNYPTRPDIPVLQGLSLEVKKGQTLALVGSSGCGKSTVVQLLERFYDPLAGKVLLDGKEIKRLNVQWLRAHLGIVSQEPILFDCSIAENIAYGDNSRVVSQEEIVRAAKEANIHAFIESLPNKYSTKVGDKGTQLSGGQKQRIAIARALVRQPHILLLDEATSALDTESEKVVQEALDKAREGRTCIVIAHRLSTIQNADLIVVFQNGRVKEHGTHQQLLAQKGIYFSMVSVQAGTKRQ

Regarding `CC1(C)SC(Nc2ccccc2O)=N[C@@H]1C(=O)O` [Compound 1, (R)-2-(2-hydroxyphenylamino)-5,5-dimethyl-4,5-dihydrothiazole-4-carboxylic acid mono-hydrochloride], in [1], the “effect on STZ-induced mechanical allodynia” value is reported as “blocks STZ-induced mechanical allodynia”. In addition, in [2], the “PN-mediated oxidation of small-molecule organic substrates such as luminol” value is “inhibits PN-mediated oxidation”. The “distribution to tissues and brain” value in data set [3] (overview) is recorded as “distributes to tissues but not to brain to an appreciable extent”. Moreover, the “bioavailability after oral administration” value in data set [3] (rat) is “bioavailable”. For the same molecule, the “elimination from the systemic circulation” value in data set [3] (rats) is on record as “moderate rate”. For the same molecule, in data set [3] (rats, 30 mg/kg oral dose), the Oral bioavailability is on record as 111%; the oral absorption entry is “rapidly and completely absorbed”; the peak plasma concentration stood at 9 µg/mL; the terminal half-life turned out to be 1.6 h. In data set [3] (rats, 30 mg/kg oral dose), the “time to peak plasma concentration” value was ≤ 1 h. The “bioavailability after oral administration” value in data set [4] is listed as “bioavailable”. For the same molecule, the epimerization in vivo result in [5] is recorded as “no epimerization”. Moreover, the stability in hepatocytes result in data set [6] is recorded as “stable”. The “form excreted into urine and feces” value in data set [7] is “primarily as a sulfate conjugate”. Moreover, the “inhibition of P-gp (in words)” value in data set [8] is recorded as “does not inhibit”. The “inhibition of BCRP (in words)” value in data set [9] is “modestly inhibits”. Further, in data set [10], the “inhibition of OATP1B3 (in words)” value is recorded as “does not inhibit”. The “inhibition of OAT3 (in words)” value in [11] is given as “weakly inhibits”.
